Source: US7112680B2, “Heterocyclic hydrazones for use as anti-cancer agents” (Austria Wirtschaftsservice Gesellschaft MIT Beschrankter …, priority 2000, dated 2006)
Like-named read-outs stand apart in the source and are kept apart here.

Tests used:
[1] = tested on: HT-29 (colon adenocarcinoma); assay: Inhibition of tumor cell growth, SRB-assay, HT-29; format: cell-based, human
Method: (§1) The KB cell lines were grown in Dulbecco's modified Eagle's medium (4,5 g glucose/l). To the cultures of KB-C1 cells 1 μg of colchicine/ml, and to the hydroxyurea-resistant KB-HU cells 1 mM hydroxyurea was added every other week. […] 3,000 - 10,000 cells in 200 μl medium were seeded per well into 96-well plates. […] Approximately 10,000 cells per 100 μl were seeded in 96-well plates. […] The substances were dissolved in dimethylsulfoxide (DMSO). […] Subsequently, the samples were fixed, washed, and the absorption was determined by a microplate reader.

[2] = tested on: KB-3-1 (human oral epidermoid carcinoma); assay: Inhibition of tumor cell growth, SRB-assay, KB-3-1; format: cell-based
Method: (§2) In order to obtain information about the growth-inhibiting action on tumor cells, the inhibition of the growth of the following human tumor cells was determined: Burkitt's lymphoma (CA 46, ATCC No. CRL 1648), CCRF-CEM (acute lymphoblastic leukemia, ATCC No. CCL 119), K562 (chronic myelogenous leukemia, ATTC No. CCL 243), HeLa (epitheloid cervix carcinoma, ATCC No. CCL 2), MEXF 276L (melanoma), HT-29 (colon adenocarcinoma, ATCC No. HTB 38), KB-3-1 (human oral epidermoid carcinoma, CTCC No. CCL 17), KB-HU hydroxyurea-resistant, multidrug-resistant KB-C1 cells (Akiyama et al, Cell. Mol Genet., 11:117–126, 1985). Burkitt's, CCRF-CEM, HeLa and MEXF 276L cells were grown in RPMI 1640, HT-29 cells in McCoy's 5A medium. The KB cell lines were grown in Dulbecco's modified Eagle's medium (4,5 g glucose/l). To the cultures of KB-C1 cells 1 μg of colchicine/ml, and to the hydroxyurea-resistant KB-HU cells 1 mM hydroxyurea was added every other week. The media were supplemented with 10% fetal calf serum (except Burkitt's lymphoma cells with 15%), 2 mM glutamine, 50 units/ml penicillin and 50 μg/ml streptomycin. Inhibition of growth of HeLa, HT-29, KB and MEXF 276L cells was detected by the SRB-assay (Skehan et al, J. Natl Cancer Inst., 82:1107–1112, 1990). 3,000 - 10,000 cells in 200 μl medium were seeded per well into 96-well plates. Dose-response curves for CCRF-CEM and Burkitt's lymphoma cells were effected by an MTT-assay (Mosman, J. Immunol Methods, 65:55–63, 1983) from Boehringer Mannheim, Mannheim, Germany. Approximately 10,000 cells per 100 μl were seeded in 96-well plates. After an initial incubation of four hours, various substance concentrations were added, and the cells were incubated at 37° C. in a water-saturated atmosphere of 95% air and 5% CO2 for 72 hours. The substances were dissolved in dimethylsulfoxide (DMSO). The concentration of DMSO was 0.5%, and this was not toxic to the cells. Subsequently, the samples were fixed, washed, and the absorption was determined by a microplate reader.

[3] = tested on: Burkitt's lymphoma (CA 46, ATCC No. CRL 1648); assay: Inhibition of tumor cell growth, MTT-assay, Burkitt's lymphoma; format: cell-based, human
Method: as §1

[4] = tested on: HeLa (epitheloid cervix carcinoma); assay: Inhibition of tumor cell growth, SRB-assay, HeLa; format: cell-based, human
[5] = tested on: multidrug-resistant KB-C1 cells; assay: Inhibition of tumor cell growth, SRB-assay, KB-C1; format: cell-based, human
Method: as §2

[6] = tested on: KB-HU hydroxyurea-resistant cells; assay: Inhibition of tumor cell growth, SRB-assay, KB-HU; format: cell-based, human
Method: as §2

[7] = tested on: human tumor grafts (cell lines of FIG. 1); assay: Colony forming assay (two-layer soft agar); format: cell-based; details: for tumor type selectivity: colony forming assay, IC70 pattern, FIG. 1; for IC50 / IC90 / Mean IC70: mean values of all cell lines tested in FIG. 1, continuous exposure 3 to 6 days
Method: An excellent correlation of drug response in patients and the colony forming assay has been found (Scholz et al, Eur. J. Cancer 25:901–905, 1990). Solid human tumors were grown as grafts in nude mice, removed from the latter, mechanically comminuted and subsequently incubated in an enzyme cocktail consisting of collagenase (1.2–1.8 U/ml), DNAse (375 U/ml) and hyaluronidase (29 U/ml) in RPMI 1640 medium at 37° C. for 30 minutes. The cell mixture was passed through sieves of 200 μm and 50 μm mesh size and washed thereafter twice with PBS (phosphate buffered saline). The percentage of live cells was determined using a Neubauer counting chamber and trypan blue staining.
The colony forming assay was performed according to a two-layer agar technique introduced and modified by Hamburger and Salmon (Hamburger and Salmon, Science, 197:461–463, 1977). The bottom layer consisted of 0.2 ml of Iscoves's Modified Dulbecco's medium with 20% fetal calf serum and 0.75% agar. 8×10^3 to 1.6×10^4 cells were added to the same medium and 0.4% agar and plated in 24-multiwell plates onto the base layer. One day after the plating (with continuous exposure), the substances were added in 0.2 ml medium. Each plate included six controls containing the solvent only, and the treated groups contained 6 concentrations of the substances, each in triplicate. Cultures were incubated at 37° C. and 7% CO2 in a water-saturated atmosphere for 3 to 6 days, depending on the doubling time of the tumor cells. At the time of maximum colony formation with a size of […], counts were performed with an automatic image analysis system. 24 h prior to counting, live colonies were stained with a sterile aqueous solution of 2-(4-iodophenyl)-3-(4-nitrophenyl)-5-phenyltetrazolium chloride (1 mg/ml, 100 μl/well). The results of the tests are given in FIG. 1, and in the following Table 5, respectively. […] Columns pointing towards the right show a slighter than average activity.

[8] = Table 1, 72 hours, read-out: IC50 HT-29 (converted)
[9] = Table 1, 72 hours, read-out: IC50 KB-3-1
[10] = Table 1, 72 hours, read-out: IC50 Burkitts
[11] = Table 1, 72 hours, read-out: IC50 HeLa (converted)
[12] = Table 1, 72 hours, read-out: IC50 KB-Cl
[13] = Table 1, 72 hours, read-out: IC50 KB-HU
[14] = Homo sapiens, Table 4, 72 hours, read-out: In vitro-activity against human tumor cell lines, KB-HU
[15] = Homo sapiens, KB 3-1, Table 4, 72 hours, read-out: In vitro-activity against human tumor cell lines, KB-3-1
[16] = Homo sapiens, KBC-1, Table 4, 72 hours, read-out: In vitro-activity against human tumor cell lines, KB-C1
[17] = Table 4, 72 hours, read-out: In vitro-activity against human tumor cell lines, KB-HU
[18] = Table 4, 72 hours, read-out: In vitro-activity against human tumor cell lines, HT-29
[19] = Table 4, 72 hours, read-out: In vitro-activity against human tumor cell lines, KB-3-1
[20] = Table 4, 72 hours, read-out: In vitro-activity against human tumor cell lines, HeLa
[21] = Table 4, 72 hours, read-out: In vitro-activity against human tumor cell lines, KB-C1
[22] = Table 4, 72 hours, read-out: In vitro-activity against human tumor cell lines, Burkitts

IC50 [1, 8] [nM]	IC50 [2, 9] [nM]	IC50 [4, 11] [nM]	IC50 [5, 12] [nM]	IC50 [6, 17] [nM]	IC50 [2, 19] [nM]	IC50 [5, 21] [nM]	SMILES	also measured
3690	1360	1020	2940				C(=NNc1nc2ccccc2[nH]1)c1ccccn1 [Ia-1]	IC50 [3, 10]: 660 nM
50	44	5.4	48				CC(=NNc1nc2ccccc2n1C)c1ccccn1 [Ia-5]	IC50 [6, 13]: 52 nM; IC50 [3, 10]: 4.3 nM
130	210	23	610				CC(=NNc1nc2ccccc2o1)c1ccccn1 [Ia-6]	IC50 [6, 13]: 320 nM; IC50 [3, 10]: 9 nM
240	4010	53	740				CCC(=NNc1nc2ccccc2[nH]1)c1ccccn1 [Ia-7]	
200	500	57	830				CCCC(=NNc1nc2ccccc2[nH]1)c1ccccn1 [Ia-11]	IC50 [6, 13]: 130 nM
520	700	21	1980				CC(C)C(=NNc1nc2ccccc2[nH]1)c1ccccn1 [Ia-15]	IC50 [6, 13]: 1 nM
> 100000		> 100000	92000				CC(C)(C)C(=NNc1nc2ccccc2[nH]1)c1ccccn1 [Ia-19]	
510		70	320				c1ccc(C(=NNc2nc3ccccc3[nH]2)C2CC2)nc1 [Ia-23]	
1360		1430	2110				c1ccc(C(=NNc2nc3ccccc3[nH]2)c2ccccn2)nc1 [Ia-36]	

Second part, the compound before the results:

SMILES	IC50 [1, 8] [nM]	IC50 [2, 9] [nM]	IC50 [4, 11] [nM]	IC50 [5, 12] [nM]	IC50 [6, 17] [nM]	IC50 [2, 19] [nM]	IC50 [5, 21] [nM]	also measured
Cn1c(NN=Cc2ccccn2)nc2ccccc21 [Ia-2]	270		80					IC50 [3, 10]: 30 nM
C(=NNc1nc2ccccc2o1)c1ccccn1 [Ia-3]	1440	480	25	770				IC50 [6, 13]: 610 nM; IC50 [3, 10]: 5 nM
CC(=NNc1nc2ccccc2[nH]1)c1ccccn1 [Ia-4, 1-(2-Pyridyl)-1-ethanon-1(1H-benzo[d]imidazol-2-yl)-hydrazone]								IC50 ([6]; Homo sapiens, Table 1, 72 hours, read-out: IC50 KB-HU): 900 nM; IC50 ([1]; Homo sapiens, HT-29, Table 1, 72 hours, read-out: IC50 HT-29 (converted)): 490 nM; IC50 ([2]; Homo sapiens, KB 3-1, Table 1, 72 hours, read-out: IC50 KB-3-1): 510 nM; IC50 ([3]; Homo sapiens, CA46, Table 1, 72 hours, read-out: IC50 Burkitts): 44 nM; IC50 ([4]; Homo sapiens, HeLa, Table 1, 72 hours, read-out: IC50 HeLa (converted)): 70 nM; IC50 ([5]; Homo sapiens, KBC-1, Table 1, 72 hours, read-out: IC50 KB-Cl): 1970 nM
CCC(=NNc1nc2ccccc2o1)c1ccccn1 [Ia-9]								tumor type selectivity [7]: selectivity for colon, breast, ovarian, and uterus tumors
COc1cccnc1C(C)=NNc1nc2ccccc2n1C [Id-1, 1-(3-Methoxy-2-pyridyl)-1-ethanone-1-(1-methyl-1H-benzo[d]imidazol-2-yl)-hydrazone]								IC50 [6, 14]: 10 nM; IC50 ([1]; Homo sapiens, HT-29, Table 4, 72 hours, read-out: In vitro-activity against human tumor cell lines, HT-29): 230 nM; IC50 [2, 15]: 20 nM; IC50 ([3]; Homo sapiens, CA46, Table 4, 72 hours, read-out: In vitro-activity against human tumor cell lines, Burkitts): 1 nM; IC50 ([4]; Homo sapiens, HeLa, Table 4, 72 hours, read-out: In vitro-activity against human tumor cell lines, HeLa): 50 nM; IC50 [5, 16]: 870 nM
COc1ccnc(C(C)=NNc2nc3ccccc3n2C)c1 [Id-2]					40	50	160	IC50 [1, 18]: 120 nM; IC50 [4, 20]: 50 nM; tumor type selectivity [7]: selectivity for colon, breast, ovarian, and uterus tumors; IC50 [7]: 80 nM; IC90 [7]: 2850 nM; Mean IC70 [7]: 261 nM
CC(=NNc1nc2ccccc2n1C)c1ncccc1Cl [Id-3]					180	310	300	IC50 [1, 18]: 540 nM; IC50 [3, 22]: 4 nM; IC50 [4, 20]: 250 nM
CC(=NNc1nc2ccccc2n1C)c1cccc(Br)n1 [Id-6]					3890	1690	2130	IC50 [1, 18]: 3150 nM; IC50 [3, 22]: 2490 nM; IC50 [4, 20]: 3250 nM
CC(=NNc1nc2ccccc2n1C)c1ncccc1C [Id-7]					460	260	160	
CC(=NNc1nc2ccccc2n1C)c1cc(C)ccn1 [Id-8]					20	30	100	tumor type selectivity [7]: selectivity for colon, breast, ovarian, and uterus tumors; IC50 [7]: 102 nM; IC90 [7]: 2380 nM; Mean IC70 [7]: 317 nM
CC(=NNc1nc2ccccc2n1C)c1ccc(C)cn1 [Id-9, 1-(5-Methyl-2-pyridyl)-1-ethanone-1-(1-methyl-1H-benzo[d]imidazol-2-yl)-hydrazone]								IC50 [6, 14]: 120 nM; IC50 [2, 15]: 40 nM; IC50 [5, 16]: 110 nM; IC50 ([7]; Homo sapiens): 199 nM; IC90 ([7]; Homo sapiens): 3790 nM; Mean IC70 [7]: 560 nM
CC(=NNc1nc2ccccc2n1C)c1cccc(C)n1 [Id-10]					2230	490	1800	IC50 [1, 18]: 800 nM; IC50 [3, 22]: 110 nM; IC50 [4, 20]: 380 nM
CC(=NNc1nc2ccccc2n1C)c1cccc(N(C)C)n1 [Id-13]					4900	4020	29500	IC50 [1, 18]: 17600 nM; IC50 [3, 22]: 2010 nM; IC50 [4, 20]: 6600 nM
CC(=NNc1nc2ccccc2n1C)c1ncccc1-c1ccccc1 [Id-14]					700	550	1420	IC50 [1, 18]: 70 nM; IC50 [3, 22]: 10 nM; IC50 [4, 20]: 70 nM
